Experimental data published in patent US12503432B2, “Ionizable lipids for nucleic acid delivery” (Global Life Sciences Solutions Canada ULC, priority 2019, dated 2025).

Columns and labels:
primary human T cells = assay: GFP mRNA LNP transfection of isolated primary human T cells, flow cytometry; format: cell-based; parameters: key to GFP Protein expression: Human T cell: *: The number of asterix symbols indicates protein expression levels interpreted by the inventors from quantitative data; **: The number of asterix symbols indicates protein expression levels interpreted by the inventors from quantitative data; ***: The number of asterix symbols indicates protein expression levels interpreted by the inventors from quantitative data; ****: The number of asterix symbols indicates protein expression levels interpreted by the inventors from quantitative data; *****: The number of asterix symbols indicates protein expression levels interpreted by the inventors from quantitative data; *******: The number of asterix symbols indicates protein expression levels interpreted by the inventors from quantitative data; details: for GFP Protein expression: Human T cell: qualitative grade interpreted from quantitative data; for transfecting T cells in vitro, Mean Fluorescence Intensity (MFI): dose 500 ng, MC3 as control, FIG. 3
Experimental: Downstream processing and analysis of treated T cells were done with flow cytometry and ELISA. Reagents were from Stemcell Technologies, Vancouver, Canada unless otherwise stated. […] At 48H following LNP-mediated mRNA exposure, the treated T cells were harvested by transferring the cell suspensions to pre-labeled 1.5 mL tubes and centrifuged 300×G at 4 degrees C. for 10 minutes. Supernatant was removed and the pellet resuspended in PBS. An amount of 0.5 ul of BD Horizon™ Fixable Viability Stain 575V™ (BD Biosciences), was added, and the mixture incubated in the dark for 10 minutes at RT. This stain binds to intracellular amines of a permeable plasma cell membrane of a necrotic cell and can be used to differentiate a viable cell and a non-viable cell during a flow cytometry assay.
The cells were centrifuged again as before, then washed twice with 1 mL of Stain buffer (BSA, BD Pharminigen), and the washed pellet was placed in 100 μl BSA. The following antibodies were added to each tube of treated cells in 2 μl volumes: CD25, CD8, CD4, (PerCP-Cy™ 5.5 Mouse Anti Human CD25, BV786 Mouse Anti-Human CD8 Clone RPA-T8, and APC-Cy™7 Mouse Anti-Human CD4 Clone SK3, all from BD Pharmingen™) with the exception of the controls: in the eGFP only sample and viability control, no antibody was added. In the single stain compensation tubes, only one antibody per tube was added.
The tubes were incubated at 4 degrees C. for 30 min, whereupon 400 μl of stain buffer (BSA) was added, and the cells were centrifuged again. Cells were washed once with 1 mL of stain buffer and spun down again. Cell pellets were resuspended in 1 mL of stain buffer and added to pre-labeled flow tubes with cell strainer caps (Corning Falcon).
After transfection, flow cytometry was used to generate eGFP or EPO expression levels as well as MFI values for the studies. […]
After transfection, flow cytometry was used to general GFP expression levels as well as MFI values for the studies.
Ionizable lipids of the invention, and MC3, were compared in a composition of CT10 at an N/P ratio of 10 for their ability to induce transfection as measured by MFI of labeled mRNA in T cells (as measured by flow cytometry).
T Cells were prepared and treated as previously described using negative selection and the triple activation protocol.
In order to expose the isolated and activated T cells (Day 0) to the formulated mRNA, […] media, with 1 μg/mL of Recombinant Human ApoE4 (“ApoE”) (Peprotech Inc., Montreal, Canada).
The dose of mRNA LNP was calculated based upon Ribogreen™ assay results. T cells were counted through Trypan blue (Sigma) exclusion and diluted to 500,000 cells/mL. Briefly, in a 12 well plate, 1 mL was aliquoted into each well. ApoE was added to a final concentration of 1 μg/mL in each well. Based upon the calibration, the required amount of mRNA LNP was added (day 3 to 7), and the plate incubated for 48 hours.

C57BL/6 mice = assay: In vivo delivery of EPO-encoded mRNA LNP via intravenous route, serum EPO ELISA; parameters: key to EPO Protein expression: IV in mice: *: The number of asterix symbols indicates protein expression levels interpreted by the inventors from quantitative data; **: The number of asterix symbols indicates protein expression levels interpreted by the inventors from quantitative data; ***: The number of asterix symbols indicates protein expression levels interpreted by the inventors from quantitative data; ****: The number of asterix symbols indicates protein expression levels interpreted by the inventors from quantitative data; *****: The number of asterix symbols indicates protein expression levels interpreted by the inventors from quantitative data; *******: The number of asterix symbols indicates protein expression levels interpreted by the inventors from quantitative data; details: for EPO Protein expression: IV in mice: qualitative grade interpreted from quantitative data
Source text: Lipid Nanoparticles with the composition IL/DSPC/Cholesterol/PEG-DMG2000 (LM 02—see Table 3) were used to encapsulate recombinant human erythropoietin (EPO) encoded mRNA with 5-moU modifications [TriLink CleanCapo 5-moU EPO mRNA L7201]. To create the LNP, lipid mix in ethanol was microfluidically mixed with a low PH buffered solution of 5-moU EPO mRNA mixer at an N/P ratio of 6 using a NanoAssemblr® Ignite™ microfluidic mixer. The microfluidically mixed particles were downstream processed using Amicon® ultra 15 10 kDa MWCO units (EMD Millipore) filtration technique. The RNA loaded lipid particles were then characterized for size, PDI and Encapsulation Efficiency (EE). Size and PDI were measured using dynamic light scattering techniques described above, and nucleic acid encapsulation efficiency was calculated using a Quant-iT RiboGreen RNA assay as described supra, modified to use hEPO mNA as the standard instead if the standard RNA in the kit. The hydrodynamic diameter of these mRNA-LNPs was ˜70 nm with a PDI in the range of 0.02 to 0.1 and an encapsulation efficiency of ˜97.8%.
Animals were handled according to the Institutional Animal Care and Use Committee ethics protocols. For experiments, 6-8 week old C57BL/6 mice were purchased from Envigo (South Kent, WA, USA). For in vivo activity, female C57BL/6 mice were treated intravenously with EPO mRNA LNPs at specified dosages of 0.5-3 mg/Kg. Samples of 50-75 μL of blood were collected 6 h post administration via saphenous vein, and at regular time intervals of 24 h or 48 h.
After harvest, blood was immediately prepared to produce serum samples using standard techniques, and stored at −80 degrees C. Briefly, after collection, the blood was allowed to clot at room temperature for 15-30 minutes. The clot was removed by centrifuging the tubes at 1000-2000×g for 10 min at 4 degrees Celsius. The clear golden-yellow color supernatant was carefully removed and transferred to sterile screw-capped clear polypropylene tubes on ice. The serum was then stored, if necessary, at −80° C. until analysis.
Samples were thawed, then analyzed at appropriate dilutions for EPO protein expression and for cytokine/chemokine levels. The total serum EPO levels were evaluated using Quantikine® IVD EPO ELISA kit (Bio-Techne, Minneapolis, MN, USA).
Following i.v administration of a 0.5 mg/Kg dose of recombinant human EPO-encoded mRNA LNPs containing ionizable lipid MC3, PNI 121 or PNI 123 using the LM02 composition at N/P 6, EPO expression levels at 6 h (upper, FIG. 6) and at 24 h (lower, FIG. 6) in C56BL/6 mice were examined; hEPO protein was measured using Quantikine® IVD® ELISA Human Erythropoietin Immunoassay protocol.

| SMILES | GFP Protein expression: Human T cell (primary human T cells) | EPO Protein expression: IV in mice (C57BL/6 mice) | also measured |
| --- | --- | --- | --- |
| CC/C=C\CC1C(CC(=O)OCC(COCCCCCCCC/C=C\C/C=C\CCCCC)OCCCCCCCC/C=C\C/C=C\CCCCC)CCC1OC(=O)CCCN(C)C (stereo not shown) [PNI 101] | **** | ** | transfection efficiency in T cells from different donors (primary human T cells; CT10, N/P 10, 48 h after treatment, six donors, FIG. 2): greater than those containing MC3 in six tested donors; Cell viability (primary human T cells; CT10, N/P 10, compared to untreated cells (control)): unaffected; transfection efficiency (primary human T cells; CT10 composition, N/P 10, LNP 7 days post activation, FIG. 1): greater transfection efficiency than either DODMA or MC3 |
| CC/C=C\CC1C(CC(=O)OCC(COCCCCCCCC/C=C\C/C=C\CCCCC)OCCCCCCCC/C=C\C/C=C\CCCCC)CCC1OC(=O)C1(C)CCN(C)CC1 (stereo not shown) [PNI 123] | *** | *** | delivering hEPO and expressing hEPO in vivo (C57BL/6 mice; i.v., 1 and 3 mg/Kg, LM02, N/P 6, 6 h and 24 h, FIG. 7): performed very well against MC3 LNP |
| CC/C=C\CC1C(CC(=O)OCC(COCCCCCCCC/C=C\C/C=C\CCCCC)OCCCCCCCC/C=C\C/C=C\CCCCC)CCC1OC(=O)C1CCN(C)CC1 (stereo not shown) [PNI 132] | ******* | *** | transfecting T cells in vitro, Mean Fluorescence Intensity (MFI) (primary human T cells; CT10 composition): substantially as good or better than MC3 |
| CC/C=C\CC1C(CC(=O)OC(CCCCCCCCC2CC2CCCCCCCC)CCCCCCCCC2CC2CCCCCCCC)CCC1OC(=O)CCCN(C)C (stereo not shown) [PNI 516] | ***** | **** | serum rhEPO expression level (C57BL/6 mice; i.v., 0.5 mg/Kg, FIG. 8): on par with MC3 |
| CC/C=C\CC1C(CC(=O)OCC(COCCCCCCCC/C=C\C/C=C\CCCCC)OCCCCCCCC/C=C\C/C=C\CCCCC)CCC1OC(=O)CCCN(CC)CC (stereo not shown) [PNI 542] | ***** | *** |  |
| CC/C=C\CC1C(CC(=O)OCC(COCCCCCCCCC2CC2CCCCCCCC)OCCCCCCCCC2CC2CCCCCCCC)CCC1OC(=O)CCN(C)C (stereo not shown) [PNI 544] | *** | *** |  |
| CCCCCCCCC1CC1CCCCCCCCOCC(COC(=O)CC1CCC(OC(=O)CCCN(C)C)C1CC1CC1CC)OCCCCCCCCC1CC1CCCCCCCC (stereo not shown) [PNI 545] | ***** | *** |  |
| CCCCCCCCC1CC1CCCCCCCCOCC(COC(=O)CC1CCC(OC(=O)CCN(C)C)C1CC1CC1CC)OCCCCCCCCC1CC1CCCCCCCC (stereo not shown) [PNI 546] | * | * |  |
| CC/C=C\CC1C(CC(=O)OC(CCCCCCCCC2CC2CCCCCCCC)CCCCCCCCC2CC2CCCCCCCC)CCC1OC(=O)CCN(C)C (stereo not shown) [PNI 549] | ** | *** |  |
| CC/C=C\CC1C(CC(=O)OCCC(CCCCCCCC)OC(=O)C(CCCCCC)CCCCCCCC)CCC1OC(=O)CCN(C)C (stereo not shown) [PNI 554] | *** | *** |  |
| CC/C=C\CC1C(CC(=O)OCC(COCCCCCCCC/C=C\C/C=C\CCCCC)OCCCCCCCC/C=C\C/C=C\CCCCC)CCC1OC(=O)CC1CCN(C)C1 (stereo not shown) [PNI 557] | *** | ** |  |
| CC/C=C\CC1C(CC(=O)OCC(COCCCCCCCC/C=C\C/C=C\CCCCC)OCCCCCCCC/C=C\C/C=C\CCCCC)CCC1OC(=O)CCCN1CCCC1 (stereo not shown) [PNI 558] | * | *** |  |
| CC/C=C\CC1C(CC(=O)OCC(COCCCCCCCC/C=C\C/C=C\CCCCC)OCCCCCCCC/C=C\C/C=C\CCCCC)CCC1OC(=O)CC1CCCCN1C (stereo not shown) [PNI 559] | ** | *** |  |
| CC/C=C\CC1C(CC(=O)OC(CCCCCCCCC2CC2CCCCCCCC)CCCCCCCCC2CC2CCCCCCCC)CCC1OC(=O)C1(C)CCN(C)CC1 (stereo not shown) [PNI 560] | **** | **** |  |
| CC/C=C\CC1C(CC(=O)OCCC(CCCCCCCC)OC(=O)C(CCCCCC)CCCCCCCC)CCC1OC(=O)C1(C)CCN(C)CC1 (stereo not shown) [PNI 565] | ******* | *** | transfecting T cells in vitro, Mean Fluorescence Intensity (MFI) (primary human T cells; CT10 composition): substantially as good or better than MC3 |
